Counter-ions that a name gives are not always drawn.
Target: human KOR receptor (Homo sapiens, UniProt P41145)
Experiment: IP-One HTRF assay, potency of KOR agonists, dose-response in transiently transfected COS-7 cells
Type: cell-based

human KOR receptor, sequence (P41145 whole entry): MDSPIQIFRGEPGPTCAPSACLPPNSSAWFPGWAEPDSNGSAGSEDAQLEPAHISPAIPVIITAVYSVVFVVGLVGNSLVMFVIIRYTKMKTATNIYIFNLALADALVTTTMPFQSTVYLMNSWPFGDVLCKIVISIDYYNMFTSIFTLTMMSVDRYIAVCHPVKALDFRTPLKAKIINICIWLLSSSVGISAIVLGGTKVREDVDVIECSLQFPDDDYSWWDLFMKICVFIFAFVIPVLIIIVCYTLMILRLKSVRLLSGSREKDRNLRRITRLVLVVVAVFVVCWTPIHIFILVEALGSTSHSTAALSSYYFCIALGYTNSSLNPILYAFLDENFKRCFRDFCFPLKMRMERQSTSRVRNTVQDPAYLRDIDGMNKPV

Structure (SMILES) | EC50
Cc1nc(-c2cccc([C@@H](CN3CC[C@H](O)C3)N(C)C(=O)Cc3ccc4c(c3)NS(=O)(=O)C4)c2)no1 [Example 181, 2-(2,2-dioxido-1,3-dihydrobenzo[c]isothiazol-6-yl)-N-((S)-2-((S)-3-hydroxypyrrolidin-1-yl)-1-(3-(5-methyl-1,2,4-oxadiazol-3-yl)phenyl)ethyl)-N-methylacetamide] | ≤ 50 nM
CN(C(=O)Cc1ccc2c(c1)NS(=O)(=O)C2)[C@H](CN1CC[C@H](O)C1)c1cccc(C#N)c1 [Example 203, N-((S)-1-(3-cyanophenyl)-2-((S)-3-hydroxypyrrolidin-1-yl)ethyl)-2-(2,2-dioxido-1,3-dihydrobenzo[c]isothiazol-6-yl)-N-methylacetamide] | ≤ 50 nM
CCC#Cc1cccc([C@@H](CN2CC[C@H](O)C2)N(C)C(=O)Cc2ccc3c(c2)NS(=O)(=O)C3)c1 [Example 37, N-((S)-1-(3-(but-1-yn-1-yl)phenyl)-2-((S)-3-hydroxypyrrolidin-1-yl)ethyl)-2-(2,2-dioxido-1,3-dihydrobenzo[c]isothiazol-6-yl)-N-methylacetamide] | ≤ 50 nM
O=C1CSc2ccc(CC(=O)N[C@H](CN3CC[C@H](O)C3)c3ccccc3)cc2N1 [Example 128, N-((S)-2-((S)-3-hydroxypyrrolidin-1-yl)-1-phenylethyl)-2-(3-oxo-3,4-dihydro-2H-benzo[b][1,4]thiazin-6-yl)acetamide] | ≤ 50 nM
CN(C(=O)Cc1ccc2c(c1)NC(=O)CS2(=O)=O)C(CN1CC[C@H](O)C1)C1CCOCC1 (stereo partly drawn) [Example 17, 2-(1,1-dioxido-3-oxo-3,4-dihydro-2H-benzo[b][1,4]thiazin-6-yl)-N-(2-((S)-3-hydroxypyrrolidin-1-yl)-1-(tetrahydro-2H-pyran-4-yl)ethyl)-N-methylacetamide-2,2,2-trifluoroacetate] | 101 to 1000 nM
CN(C(=O)Cc1ccc2c(c1)NC(=O)CS2(=O)=O)[C@H](CN1CC[C@H](O)C1)c1cccc(OCC(F)(F)F)c1 [Example 144, 2-(1,1-dioxido-3-oxo-3,4-dihydro-2H-benzo [b][1,4]thiazin-6-yl)-N-((S)-2-((S)-3-hydroxypyrrolidin-1-yl)-1-(3-(2,2,2-trifluoroethoxy)phenyl)ethyl)-N-methylacetamide] | ≤ 50 nM
CN(C(=O)Cc1ccc2c(c1)NC(=O)CS2(=O)=O)[C@H](CN1CC[C@H](O)C1)c1cccc(C(F)(F)F)c1 [Example 123, 2-(1,1-dioxido-3-oxo-3,4-dihydro-2H-benzo[b][1,4]thiazin-6-yl)-N-((S)-2-((S)-3-hydroxypyrrolidin-1-yl)-1-(3-(trifluoromethyl)phenyl)ethyl)-N-methylacetamide] | ≤ 50 nM
CN(C(=O)Cc1ccc2c(c1)NC(=O)C2)[C@H](CN1CC[C@H](O)C1)c1cccc(-c2cscn2)c1 [Example 217, N-((S)-2-((S)-3-hydroxypyrrolidin-1-yl)-1-(3-(thiazol-4-yl)phenyl)ethyl)-N-methyl-2-(2-oxoindolin-6-yl)acetamide] | ≤ 50 nM
CN(C(=O)Cc1ccc2c(c1)NC(=O)C2)[C@H](CN1CC[C@H](F)C1)c1cccc(C(=O)O)c1 [Example 28, 3-((S)-2-((S)-3-fluoropyrrolidin-1-yl)-1-(N-methyl-2-(2-oxoindolin-6-yl)acetamido)ethyl) benzoic acid] | 101 to 1000 nM
CN(C(=O)Cc1ccc2c(c1)NC(=O)C2)[C@H](CN1CC[C@H](O)C1)c1cccc(-c2noc(C(F)(F)F)n2)c1 [Example 179, N-((S)-2-((S)-3-hydroxypyrrolidin-1-yl)-1-(3-(5-(trifluoromethyl)-1,2,4-oxadiazol-3-yl)phenyl)ethyl)-N-methyl-2-(2-oxoindolin-6-yl)acetamide] | ≤ 50 nM
O=C(O)COc1cccc([C@@H](CN2CCCC2)NC(=O)Cc2ccc3oc(=O)[nH]c3c2)c1 [Example 85, (S)-2-(3-(1-(2-(2-oxo-2,3-dihydrobenzo[d]oxazol-5-yl)acetamido)-2-(pyrrolidin-1-yl)ethyl)phenoxy)acetic acid hydrochloride] | ≤ 50 nM

From patent US9487510B2, “Substituted heterocyclic acetamides as kappa opioid receptor (KOR) agonists” (Dr. Reddy's Laboratories Ltd., priority 2012, dated 2016)
